The source of these data is patent US20150246908A1, “KLF5 MODULATORS” (The Scripps Research Institute, priority 2012, published 2015).

Values after ≈ are worked out from the molar mass of the structure shown. “Also recorded” adds a separate entry of the source. Read-outs that look alike come from different tables or passages of the source.

One data set relates to KLF5 protein. The experiment in a line: KLF5 protein levels by Western blot in colon cancer cell lines. The class given is cell-based. The source says: The chemical structure of this compound is described using Formula (I) in which R^1=(E)-2-(3-chlorophenyl)ethenyl, R^2═H, R^3=4-tetrahydro-2H-thiopyran 1,1-dioxide, R^4=Me, X═NH, Y=absent).
For a further data set, the system named is DLD-1 cell line. The experiment in a line: DLD-1 cell viability. The following applies: for EC50: cell viability, footnote calls it IC50 cell viability. In kind it is cell-based.
In the next data set the test system is HT29 (colon). As to the kind of experiment: Tumor cell line potency, HT29. The class given is cell-based.
The next data set concerns SW-620 (colon). As to the kind of experiment: Tumor cell line potency, SW-620. The class given is cell-based.
A further data set deals with HCT-116 (colon). The experiment in a line: Tumor cell line potency, HCT-116. In kind it is cell-based.
Data set [1] concerns colon cancer cell line KM12. The experiment in a line: NCI60 cytotoxicity, KM12. To be noted: KM12, high KLF5 mRNA level. The class given is cell-based. From the text:
(§1) Moreover, cytotoxicity in general trends with KLF5 levels in the tumor types. […] Only the colon cancer cell line KM12, the ovarian cancer line IGROV1, and the non-small cell lung cancer line NCI-H322M are the NCI60 cell lines high with respect to KLF5 mRNA levels that are ML264-insensitive.

Data set [2] deals with ovarian cancer line IGROV1. The experiment in a line: NCI60 cytotoxicity, IGROV1. The following applies: IGROV1, high KLF5 mRNA level. In kind it is cell-based.
Excerpt: as §1

In data set [3] the test system is non-small cell lung cancer line NCI-H322M. The experiment in a line: NCI60 cytotoxicity, NCI-H322M. In kind it is cell-based. To be noted: high KLF5 mRNA level.
Excerpt: as §1

The test system of a further data set is 47 kinases. The experiment in a line: Off-target activity vs. 47 kinases. In kind it is biochemical.
For data set [4], the system named is 67 protein targets of therapeutic and/or toxicological interest (GPCRs, ion channels, enzymes, etc.). As to the kind of experiment: Off-target activity vs. 67 protein targets.
A short description of data set [5]: Solubility measured at Scripps. In kind it is physicochemical. The following applies: aqueous buffer.
A short description of a further data set: Stability in PBS. The class given is physicochemical. To be noted: read-out: Stability (t1/2) in PBS.
A short description of data set [6]: Michael acceptor test, incubation with GSH, LCMS. In kind it is physicochemical. The following applies: by LCMS after incubation with 100 μM GSH.
Another data set relates to human KLF5 promoter. The experiment in a line: KLF5 promoter luciferase assay in DLD-1/pGL4.18KLF5p cell line. To be noted: measuring luciferase activity. In kind it is cell-based.
Setting [7] is: Homo sapiens, DLD-1, DlD-1 4.9 cell line.

For `CN(C(=O)CNC(=O)/C=C/c1cccc([N+](=O)[O-])c1)C1CCS(=O)(=O)C1` (stereo not shown) [CID46931037], the “effect on KLF5 protein levels” value in the data set with KLF5 protein is recorded as “lesser effects on KLF5 expression than ML264”.
For `CN(C(=O)COC(=O)/C=C/c1cccc([N+](=O)[O-])c1)C1CCS(=O)(=O)C1` (stereo not shown) [CID 5951923], the “effect on KLF5 protein levels” value in the data set on KLF5 protein was “lesser effects on KLF5 expression than ML264”.
For orientation: IC50 means the point on the concentration scale where inhibition reaches its midpoint. Read a low IC50 as inhibition by little substance. For orientation: EC50 means the concentration giving half of the maximal effect. A word on the inhibition: it is how much of the control response was suppressed. A word on the solubility: it is the concentration that dissolves in the medium under given conditions. Turning to `CN(C(=O)CNC(=O)/C=C/c1cccc(Cl)c1)C1CCS(=O)(=O)CC1` [Compound 1, (E)-3-(3-chlorophenyl)-N-(2-((1,1-dioxidotetrahydro-2H-thiopyran-4-yl)(methyl)amino)-2-oxoethyl)acrylamide], the “maximal effect on DLD-1 viability” value in the data set with DLD-1 cell line is reported as greater than 90%. Moreover, the IC50 in the data set on DLD-1 cell line (Homo sapiens, DLD1 (colon), viability) was found to be 0.029 µM; with HT29 (colon) (Homo sapiens, HT-29, HT29 (colon)), 0.13 µM; in the data set on SW-620 (colon) (Homo sapiens, SW-620 (colon)), 0.43 µM; in the data set on HCT-116 (colon) (Homo sapiens, HCT-116 (colon)) it was 0.56 µM. Moreover, in the data set on DLD-1 cell line (Homo sapiens), the midpoint of the response, the EC50, lay at 0.022 µM. Further, the “effect on cell type” value is “significant effects at submicromolar doses” in the data set with HT29 (colon) (HT29, submicromolar doses); “significant effects at submicromolar doses” in the data set on SW-620 (colon) (SW620, submicromolar doses); “significant effects at submicromolar doses” with HCT-116 (colon) (HCT116, submicromolar doses). For the same molecule, the sensitivity to cytotoxicity result in data set [1], in [2] and in data set [3] was “ML264-insensitive” each time. Besides, the “off-target activity vs. 47 kinases” value in the data set with 47 kinases was “inactive”. In data set [4], the “inhibition at 10 μM vs. 67 protein targets” value is recorded as less than 50%. Besides, the “effect on KLF5 protein levels” value in the data set on KLF5 protein (listed as ML264) was “significantly reduces KLF5 protein levels; also recorded: lowers KLF5 protein levels”. Further, the solubility was 18.7 µM (≈ 7.2 µg/mL) in data set [5] (PBS, read-out: Solubility in PBS) and 35 µM (≈ 13.5 µg/mL) in data set [5] (assay buffer, read-out: Solubility in assay buffer). In the data set “Stability in PBS”, the half-life was greater than 48 h. The Michael acceptor entry in data set [6] is given as “Michael acceptor: No”.
As to `C[C@@H](NC(=O)/C=C/c1cccc(Cl)c1)C(=O)N(C)C1CCS(=O)(=O)CC1` [Compound 24], in the data set on human KLF5 promoter (setting [7]), the IC50 is greater than 100 µM.
In the data set on human KLF5 promoter (setting [7]), `CN(C(=O)CNC(=O)/C=C/c1cccc(S(=O)(=O)N(C)C)c1)C1CCS(=O)(=O)C1` (stereo not shown) [Compound 25] showed an IC50 greater than 100 µM.
For `O=C(/C=C/c1cccc(Cl)c1)NCC(=O)NC1CCS(=O)(=O)CC1` [Compound 26], in the data set with human KLF5 promoter (setting [7]), the IC50 was greater than 100 µM.
For `C[C@@H](NC(=O)/C=C/c1cccc(Cl)c1)C(=O)NC1CCS(=O)(=O)C1` (stereo partly shown) [Compound 27], the IC50 in the data set with human KLF5 promoter (setting [7]) is greater than 100 µM.
In turn, `O=C(/C=C/c1cccc(Cl)c1)NCCC(=O)NC1CCS(=O)(=O)C1` (stereo not shown) [Compound 28] showed an IC50 with human KLF5 promoter (setting [7]) greater than 100 µM.
The same measure, in the same setting: next, `CN(C(=O)CCNC(=O)/C=C/c1cccc(Cl)c1)C1CCS(=O)(=O)C1` (stereo not shown) [Compound 29]: greater than 100 µM; `C[C@@H](NC(=O)/C=C/c1cccc(Cl)c1)C(=O)N(C)C1CCS(=O)(=O)C1` (stereo partly shown) [Compound 30]: greater than 100 µM.
In the data set with human KLF5 promoter (setting [7]), `C[C@@H](NC(=O)/C=C/c1cccc(Cl)c1)C(=O)NC1CCS(=O)(=O)CC1` [Compound 31] gave an IC50 greater than 100 µM.
On to `CN(C(=O)CNC(=O)c1cccc2c1OCCO2)C1CCS(=O)(=O)CC1` [Compound 32], for which the concentration for half-maximal inhibition (IC50) in the data set on human KLF5 promoter (setting [7]) was greater than 100 µM.
Same read-out and setting: next, `CN(C(=O)CNC(=O)c1cc2cc(Cl)ccc2[nH]1)C1CCS(=O)(=O)CC1` [Compound 33]: greater than 100 µM; `Cc1ccc(C2(C(=O)NCC(=O)N(C)C3CCS(=O)(=O)CC3)CC2)cc1` [Compound 34]: greater than 100 µM.
Same read-out and setting: in the case of `CN(C(=O)CNS(=O)(=O)c1cccc2ccccc12)C1CCS(=O)(=O)CC1` [Compound 35] it was greater than 100 µM.
Same read-out and setting: in the case of `CN(C(=O)CNC(=O)Nc1ccc(Br)cc1Br)C1CCS(=O)(=O)CC1` [Compound 36] it was greater than 100 µM; in that of `CN(C(=O)CNC(=O)c1cc2ccccc2o1)C1CCS(=O)(=O)CC1` [Compound 38], greater than 100 µM; in that of `CN(C(=O)CNC(=O)c1ccc2ccccc2n1)C1CCS(=O)(=O)CC1` [Compound 39], greater than 100 µM.
As to `CN(C(=O)CNC(=O)Cc1ccc2c(c1)OCO2)C1CCS(=O)(=O)CC1` [Compound 40], the IC50 with human KLF5 promoter (setting [7]) is greater than 100 µM.
As for `CN(C(=O)CNC(=O)c1ccnn1-c1ccccc1)C1CCS(=O)(=O)CC1` [Compound 41], the IC50 with human KLF5 promoter (setting [7]) is greater than 100 µM.
Molecule `CN(C(=O)CNC(=O)COCc1ccccc1)C1CCS(=O)(=O)CC1` [Compound 42] displayed a half-maximal inhibitory concentration (IC50) with human KLF5 promoter (setting [7]) greater than 100 µM.
Still for that read-out and setting: next, `COc1ccc(CC(=O)NCC(=O)N(C)C2CCS(=O)(=O)CC2)cc1` [Compound 43]: greater than 100 µM; `CN(C(=O)CNC(=O)C1CCc2ccccc2O1)C1CCS(=O)(=O)CC1` (stereo not shown) [Compound 44]: greater than 100 µM; `CN(C(=O)CNC(=O)c1coc2ccccc2c1=O)C1CCS(=O)(=O)CC1` [Compound 45]: greater than 100 µM.
In the data set with human KLF5 promoter (setting [7]), `CN(C(=O)CNC(=O)c1ccc2cc[nH]c2c1)C1CCS(=O)(=O)CC1` [Compound 46] had a half-maximal inhibitory concentration (IC50) greater than 100 µM.
Consider `CN(C(=O)CNC(=O)c1ccc2ncsc2c1)C1CCS(=O)(=O)CC1` [Compound 47], for which the IC50 in the data set with human KLF5 promoter (setting [7]) is greater than 100 µM.
The same measure, in the same setting: in the case of `CN(C(=O)CNC(=O)c1cnc2ccc(Cl)cc2c1)C1CCS(=O)(=O)CC1` [Compound 48] it was greater than 100 µM; in that of `CN(C(=O)CNC(=O)c1ccsc1)C1CCS(=O)(=O)CC1` [Compound 49], greater than 100 µM.
The same measure, in the same setting: in the case of `COc1cccc(CNC(=O)NCC(=O)N(C)C2CCS(=O)(=O)CC2)c1` [Compound 50] it was greater than 100 µM.
With `O=C(/C=C/c1cccc(Cl)c1)NCC(=O)N(C1CC1)C1CCS(=O)(=O)CC1` [Compound 52], the half-maximal inhibitory concentration (IC50) with human KLF5 promoter (DlD-1 4.9 cell line) was greater than 100 µM.
For the molecule `CN(C(=O)COC(=O)/C=C/c1cccc([N+](=O)[O-])c1)C1CCS(=O)(=O)C1` (stereo not shown) [Compound 53C, reference compound], the IC50 in the data set with human KLF5 promoter (setting [7]) came out at 0.27 µM. This molecule displayed a concentration giving a half-maximal response (EC50) in the data set with DLD-1 cell line (Homo sapiens) of 1.51 µM.
Turning to `O=C(/C=C/c1cccc(Cl)c1)NCC(=O)N(C1CC1)C1CCS(=O)(=O)CC1` [Compound 54], the IC50 in the data set with human KLF5 promoter (DlD-1 4.9 cell line) stood at 7.8 µM. Further, in the data set with DLD-1 cell line (Homo sapiens), the 50% effective concentration (EC50) came to 0.39 µM.
